For data set [1], the system named is dengue virus type 2. The experiment in a line: Antiviral activity against DENV-2 16,681 infected in Vero E6 cells assessed as reduction in virus induced cytopathic effect at 10 uM incubated for 4 days by inverted microscopic analysis. It is filed as functional, organism-based. Conditions: time 4.0 day.
Data set [2] concerns dengue virus type 2. The data set is described as follows: Antiviral activity against DENV-2 16,681 infected in Vero E6 cells assessed as reduction in viral infection by measuring NS4B positive cells at 10 uM incubated for 4 days by immunofluorescence assay. It is filed as functional. On the set-up: scale not given: the % may be the effect or the level left. Particulars: time 4 day.

Data set [3] can be described thus: Cytotoxicity against african green monkey Vero E6 cells by MTT assay. It counts as toxicity, cell-based, Vero C1008. Particulars: chlorocebus sabaeus. In general terms: Tetrazolium dyes change colour on reduction, which living cells bring about.
For data set [4], the system named is dengue virus type 2. The data set is described as follows: Antiviral activity against DENV-2 16,681 infected in Vero E6 cells assessed as reduction in virus induced cytopathic effect measured after 96 hrs by inverted microscopic analysis. It is filed as functional, organism-based. Particulars: Dengue virus, 16,681, Vero C1008, 96 h. In general terms: Damage to the host cells serves as the signal in cytopathic effect assays.

A short description of data set [5]: Selectivity index, ratio of CC50 for african green monkey Vero E6 cells to EC50 for antiviral activity against DENV-2 16,681 infected in Vero E6 cells. It counts as toxicity, cell-based. Particulars: read-out: Ratio CC50/EC50.
A short description of data set [6]: Cytotoxicity against human A549 cells by MTT assay. It counts as toxicity, cell-based.
The test system of data set [7] is dengue virus type 2. The experiment in a line: Antiviral activity against DENV-2 16,681 infected in A549 cells assessed as reduction in virus induced cytopathic effect measured after 96 hrs by inverted microscopic analysis. It is filed as functional, organism-based. Conditions: Dengue virus, 16,681, A549, 96 h.
The nature of data set [8]: Selectivity index, ratio of CC50 for human A549 cells to EC50 for antiviral activity against DENV-2 16,681 infected in A549 cells. Conditions: read-out: Ratio CC50/EC50. It counts as toxicity, cell-based.
For data set [9], the system named is dengue virus type 2. The experiment in a line: Antiviral activity against DENV-2 16,681 infected in Vero E6 cells assessed as reduction in viral infectivity by measuring NS4B-positive cells at 10 uM pretreated with compound for 1 hr followed by viral infection and washout measured after 96 hrs by immunofluorescence analysis. Further details: scale not given: the % may be the effect or the level left. It is filed as functional.

Data set [10] concerns dengue virus type 2. The data set is described as follows: Antiviral activity against DENV-2 16,681 infected in Vero E6 cells assessed as reduction in viral infectivity by measuring NS4B-positive cells at 0.1 uM incubated for 1 hr followed by washout and measured after 96 hrs by immunofluorescence analysis. It counts as functional. Further details: scale not given: the % may be the effect or the level left.

The subject of data set [11] is dengue virus type 2. The experiment in a line: Antiviral activity against DENV-2 16,681 infected in Vero E6 cells assessed as reduction in viral infectivity by measuring NS4B-positive cells at 1 uM pretreated with virus for 1 hr followed by compound addition for 1 hr prior to washout and measured after 96 hrs by immunofluorescence analysis. Further details: scale not given: the % may be the effect or the level left. It counts as functional.

The test system of data set [12] is dengue virus type 2. The data set is described as follows: Antiviral activity against DENV-2 16,681 infected in Vero E6 cells assessed as reduction in viral infectivity by measuring NS4B-positive cells pretreated with compound for 1 hr followed by viral infection and washout measured after 96 hrs by immunofluorescence analysis. It is filed as functional, organism-based. Particulars: Dengue virus, 16,681, Vero C1008.

Data set [13] has as its system dengue virus type 2. The data set is described as follows: Antiviral activity against DENV-2 16,681 infected in Vero E6 cells assessed as reduction in viral infectivity by measuring NS4B-positive cells incubated for 1 hr followed by washout and measured after 96 hrs by immunofluorescence analysis. Conditions: Dengue virus, 16,681, Vero C1008. It counts as functional, organism-based.

In data set [14] the test system is dengue virus type 2. The experiment in a line: Antiviral activity against DENV-2 16,681 infected in Vero E6 cells assessed as reduction in viral infectivity by measuring NS4B-positive cells pretreated with virus for 1 hr followed by compound addition for 1 hr prior to washout and measured after 96 hrs by immunofluorescence analysis. It counts as functional, organism-based. Conditions: Dengue virus, 16,681, Vero C1008.

For data set [15], the system named is dengue virus type 2. The data set is described as follows: Antiviral activity against DENV-2 16,681 infected in Vero E6 cells assessed as reduction in viral infectivity by measuring NS4B-positive cells incubated for 1 hr followed by washout and subsequent culturing. It counts as functional, organism-based. Particulars: Dengue virus, 16,681, Vero C1008, 1 h.

The target of the next data set is Genome polyprotein (dengue virus type 2, UniProt P29990). The experiment in a line: Inhibition of DENV-2 NS2B/NS3 protease expressed in HEK293 cells cotransfected with CFP-trrg-YFP incubated for 24 hrs by FRET assay. It counts as cell-based.

Active and inactive are the calls of the source. The calls are words filed in the database; no cut-off is given here.

A word on the CC50: it is the concentration at which the toxic effect on the cells reaches its halfway point. As usually defined, the EC50 is the concentration at which the effect is half-maximal. What is called IC50 is the concentration that gives 50% inhibition.

Take `CN1C[C@H]2C[C@H](Cn3c2cccc3=O)C1=S`: the result in the data set with dengue virus type 2 [1] was Active. Moreover, the Activity with dengue virus type 2 [2] amounted to 64.9%.

In the case of `CN1C[C@@H]2C[C@H](C1=S)c1cccc(=S)n1C2`, the result in the data set on dengue virus type 2 [1] was Active. In addition, the Activity in the data set with dengue virus type 2 [2] turned out to be 61%.

For `CN1C[C@H]2C[C@H](Cn3c2cccc3=S)C1=S`, the result in the data set on dengue virus type 2 [1] was Active. In the data set with dengue virus type 2 [2], the Activity is given as 60%.

Regarding `CN1C[C@@H]2C[C@H](C1=S)c1cccc(=O)n1C2`, in the data set on dengue virus type 2 [1], the outcome was Active. In addition, the Activity in the data set with dengue virus type 2 [2] is 95%; with dengue virus type 2 [9], <40%; in the data set with dengue virus type 2 [10], >50%; with dengue virus type 2 [11], >60%. The CC50 in data set [3] and in data set [6] was > 50 µM throughout. For the same compound, the EC50 with dengue virus type 2 [4] is 0.005 µM; in the data set on dengue virus type 2 [7], 0.002 µM; in the data set with dengue virus type 2 [12], > 10 µM; in the data set on dengue virus type 2 [13], 0.02 µM; in the data set on dengue virus type 2 [14], 0.67 µM; in the data set on dengue virus type 2 [15], 0.1 µM. Also, the figures for the selectivity ratio in [5] and in data set [8] were > 10000 and > 25000, respectively. On Genome polyprotein, this compound had an IC50 of 2.76 µM.

Turning to `CN1C[C@@H]2C[C@H](C1)c1cccc(=S)n1C2`, in the data set with dengue virus type 2 [1], the result was Active. The Activity with dengue virus type 2 [2] was 88.7%; in the data set on dengue virus type 2 [9], <40%; with dengue virus type 2 [10] it was >50%. For the same compound, the CC50 in [3] and in data set [6] was > 50 µM in each case. Besides, the 50% effective concentration (EC50) in the data set with dengue virus type 2 [4] is 0.94 µM; in the data set on dengue virus type 2 [7], 2.11 µM; in the data set with dengue virus type 2 [12], > 10 µM; in the data set with dengue virus type 2 [13], 0.11 µM; with dengue virus type 2 [14], 4.08 µM; in the data set with dengue virus type 2 [15] it was 1.02 µM. Further, the selectivity ratio in data set [5] was > 53.2; in data set [8], > 23.7. In addition, the outcome with dengue virus type 2 [11] was inactive. The half-inhibitory concentration (IC50) against Genome polyprotein was 13.5 µM.
